The term pIC50 denotes the negative decadic logarithm of the IC50, by convention in mol/L.

Assay [1] addresses T1, human Cereblon WT GST-tagged protein (Homo sapiens, UniProt Q96SW2).
T1 construct: purchased CISBIO 64BDCRBNPEH
In words: CRBN-binding affinity by HTRF (CEREBLON BINDING kit). The conditions noted are these: HTRF inhibitory activity, CEREBLON BINDING kit; read-out: HTRF IC50. Background: In TR-FRET formats the signal depends on donor and acceptor labels being close together.

The target in a further assay is T2, IKZF2 (Homo sapiens, UniProt Q96SW2+Q9UKS7).
T2 construct: endogenous in cells; host or cells: hPBMCs (Milecell Biotechnologies)
In words: Western-blot assay of substrate protein degradation in hPBMCs, IKZF2. As to conditions: 24 hours of compound treatment, compounds tested at 50 nM and 500 nM (concentration of the table not stated). It is filed as cell-based.

A further assay concerns the target T3, IKZF3 (Homo sapiens, UniProt Q96SW2+Q9UKT9).
T3 construct: endogenous in cells; host or cells: hPBMCs (Milecell Biotechnologies)
In words: Western-blot assay of substrate protein degradation in hPBMCs, IKZF3. It is filed as cell-based. As to conditions: 24 hours of compound treatment, compounds tested at 50 nM and 500 nM (concentration of the table not stated).

In another assay the target is T4, GSPT1 (Homo sapiens, UniProt P15170+Q96SW2).
T4 construct: endogenous in cells; host or cells: hPBMCs (Milecell Biotechnologies)
In words: Western-blot assay of substrate protein degradation in hPBMCs, GSPT1. It is filed as cell-based. The conditions noted are these: 24 hours of compound treatment, compounds tested at 50 nM and 500 nM (concentration of the table not stated).

The target in a further assay is T5, WEE1 (Homo sapiens, UniProt P30291+Q96SW2).
T5 construct: endogenous in cells; host or cells: hPBMCs (Milecell Biotechnologies)
In words: Western-blot assay of substrate protein degradation in hPBMCs, WEE1. As to conditions: 24 hours of compound treatment, compounds tested at 50 nM and 500 nM (concentration of the table not stated). It is filed as cell-based.

Another assay deals with T6, CK1α (Homo sapiens, UniProt P48729+Q96SW2).
T6 construct: endogenous in cells; host or cells: hPBMCs (Milecell Biotechnologies)
Kind of assay: Western-blot assay of substrate protein degradation in hPBMCs, CK1α. It is filed as cell-based. The conditions noted are these: 24 hours of compound treatment, compounds tested at 50 nM and 500 nM (concentration of the table not stated).

Another assay has as its target T7, IKZF1 (Homo sapiens, UniProt Q13422+Q96SW2).
T7 construct: endogenous in cells; host or cells: hPBMCs (Milecell Biotechnologies)
Kind of assay: Western-blot assay of substrate protein degradation in hPBMCs, IKZF1. It is filed as cell-based. The conditions noted are these: 24 hours of compound treatment, compounds tested at 50 nM and 500 nM (concentration of the table not stated).

pIC50: −log10 of the molar value. Bounds are passed on as bounds.

T6 sequence (P48729 whole entry): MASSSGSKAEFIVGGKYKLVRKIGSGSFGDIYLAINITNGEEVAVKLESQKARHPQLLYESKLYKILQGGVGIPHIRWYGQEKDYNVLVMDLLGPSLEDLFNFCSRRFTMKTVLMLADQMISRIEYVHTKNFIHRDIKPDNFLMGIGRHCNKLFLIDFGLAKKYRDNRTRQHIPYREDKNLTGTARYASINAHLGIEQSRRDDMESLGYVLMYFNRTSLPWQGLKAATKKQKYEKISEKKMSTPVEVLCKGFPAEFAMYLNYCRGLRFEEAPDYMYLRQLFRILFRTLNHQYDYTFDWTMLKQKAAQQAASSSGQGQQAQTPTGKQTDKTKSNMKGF
T6 sequence (Q96SW2 whole entry): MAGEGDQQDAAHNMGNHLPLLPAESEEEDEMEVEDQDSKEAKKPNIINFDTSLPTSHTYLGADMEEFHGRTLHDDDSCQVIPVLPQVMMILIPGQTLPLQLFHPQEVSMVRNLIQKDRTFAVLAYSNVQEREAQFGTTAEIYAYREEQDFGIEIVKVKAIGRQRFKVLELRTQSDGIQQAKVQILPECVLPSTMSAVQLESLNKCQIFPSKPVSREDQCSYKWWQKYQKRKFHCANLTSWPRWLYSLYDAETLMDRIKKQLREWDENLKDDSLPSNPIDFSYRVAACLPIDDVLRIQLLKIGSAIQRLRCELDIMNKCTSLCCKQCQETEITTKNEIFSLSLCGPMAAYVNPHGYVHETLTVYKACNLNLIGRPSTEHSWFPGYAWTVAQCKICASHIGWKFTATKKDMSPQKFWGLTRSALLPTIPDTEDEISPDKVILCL
T6 sequence (Q16531 whole entry partner): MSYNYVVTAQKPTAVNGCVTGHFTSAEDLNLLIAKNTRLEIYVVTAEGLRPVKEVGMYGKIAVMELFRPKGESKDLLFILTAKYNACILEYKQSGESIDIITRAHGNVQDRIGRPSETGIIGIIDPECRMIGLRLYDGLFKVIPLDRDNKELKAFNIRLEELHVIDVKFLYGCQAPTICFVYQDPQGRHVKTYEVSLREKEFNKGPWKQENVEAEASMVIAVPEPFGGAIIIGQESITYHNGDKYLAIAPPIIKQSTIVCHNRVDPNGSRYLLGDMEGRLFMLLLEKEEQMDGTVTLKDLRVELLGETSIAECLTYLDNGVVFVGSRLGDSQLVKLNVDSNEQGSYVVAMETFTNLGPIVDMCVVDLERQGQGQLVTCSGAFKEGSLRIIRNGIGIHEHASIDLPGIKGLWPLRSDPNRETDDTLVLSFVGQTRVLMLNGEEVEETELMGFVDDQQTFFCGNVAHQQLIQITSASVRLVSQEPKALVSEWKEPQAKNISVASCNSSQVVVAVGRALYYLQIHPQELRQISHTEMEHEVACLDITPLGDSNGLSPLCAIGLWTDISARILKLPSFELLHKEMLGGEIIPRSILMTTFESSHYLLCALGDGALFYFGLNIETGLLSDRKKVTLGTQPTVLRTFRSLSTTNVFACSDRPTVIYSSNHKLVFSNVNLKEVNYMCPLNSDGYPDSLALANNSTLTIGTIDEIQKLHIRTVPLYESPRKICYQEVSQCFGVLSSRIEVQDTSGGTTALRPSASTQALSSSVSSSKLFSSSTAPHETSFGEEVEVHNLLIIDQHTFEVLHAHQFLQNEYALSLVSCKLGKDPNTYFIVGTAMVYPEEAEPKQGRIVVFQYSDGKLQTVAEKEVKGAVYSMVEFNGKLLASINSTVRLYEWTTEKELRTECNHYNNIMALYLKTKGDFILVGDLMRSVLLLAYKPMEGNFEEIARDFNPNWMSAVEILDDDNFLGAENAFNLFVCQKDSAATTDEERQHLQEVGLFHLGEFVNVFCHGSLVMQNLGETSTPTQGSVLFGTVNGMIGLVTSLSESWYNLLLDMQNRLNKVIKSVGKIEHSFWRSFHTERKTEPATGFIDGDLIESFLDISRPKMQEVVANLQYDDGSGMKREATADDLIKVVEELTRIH
T2 sequence (Q9UKS7 whole entry): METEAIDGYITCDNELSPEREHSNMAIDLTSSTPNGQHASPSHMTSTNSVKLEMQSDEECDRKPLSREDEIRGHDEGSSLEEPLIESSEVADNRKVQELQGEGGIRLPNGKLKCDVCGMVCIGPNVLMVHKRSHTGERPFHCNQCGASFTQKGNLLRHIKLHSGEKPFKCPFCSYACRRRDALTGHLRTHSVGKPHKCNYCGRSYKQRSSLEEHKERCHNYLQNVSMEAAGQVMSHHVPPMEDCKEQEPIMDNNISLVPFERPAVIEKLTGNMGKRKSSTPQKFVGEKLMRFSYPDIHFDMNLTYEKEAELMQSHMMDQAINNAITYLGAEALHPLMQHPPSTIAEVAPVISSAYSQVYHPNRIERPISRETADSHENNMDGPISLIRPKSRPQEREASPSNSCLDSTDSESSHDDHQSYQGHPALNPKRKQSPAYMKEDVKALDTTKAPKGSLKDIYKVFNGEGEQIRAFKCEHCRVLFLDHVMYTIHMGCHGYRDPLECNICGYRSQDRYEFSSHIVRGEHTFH
T2 sequence (Q96SW2 whole entry): as the sequence (Q96SW2 whole entry) above
T2 sequence (Q16531 whole entry partner): as the sequence (Q16531 whole entry partner) above
T5 sequence (P30291 whole entry): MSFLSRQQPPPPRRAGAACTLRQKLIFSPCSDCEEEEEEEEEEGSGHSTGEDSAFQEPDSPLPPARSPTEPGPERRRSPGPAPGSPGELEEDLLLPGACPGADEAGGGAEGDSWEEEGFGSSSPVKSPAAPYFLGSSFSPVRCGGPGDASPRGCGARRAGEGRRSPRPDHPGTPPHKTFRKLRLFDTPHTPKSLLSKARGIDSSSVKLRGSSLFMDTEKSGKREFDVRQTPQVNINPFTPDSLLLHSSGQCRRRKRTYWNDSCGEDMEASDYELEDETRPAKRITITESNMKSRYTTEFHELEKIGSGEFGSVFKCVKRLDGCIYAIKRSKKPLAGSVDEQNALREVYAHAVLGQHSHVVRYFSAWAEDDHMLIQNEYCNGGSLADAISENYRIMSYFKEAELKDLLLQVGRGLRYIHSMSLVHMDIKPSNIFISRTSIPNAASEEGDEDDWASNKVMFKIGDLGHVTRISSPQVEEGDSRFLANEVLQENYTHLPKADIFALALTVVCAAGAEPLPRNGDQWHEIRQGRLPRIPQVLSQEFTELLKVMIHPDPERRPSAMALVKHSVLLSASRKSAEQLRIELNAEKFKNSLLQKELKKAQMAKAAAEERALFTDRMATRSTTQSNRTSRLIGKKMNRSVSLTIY
T5 sequence (Q96SW2 whole entry): as the sequence (Q96SW2 whole entry) above
T5 sequence (Q16531 whole entry partner): as the sequence (Q16531 whole entry partner) above
T3 sequence (Q9UKT9 whole entry): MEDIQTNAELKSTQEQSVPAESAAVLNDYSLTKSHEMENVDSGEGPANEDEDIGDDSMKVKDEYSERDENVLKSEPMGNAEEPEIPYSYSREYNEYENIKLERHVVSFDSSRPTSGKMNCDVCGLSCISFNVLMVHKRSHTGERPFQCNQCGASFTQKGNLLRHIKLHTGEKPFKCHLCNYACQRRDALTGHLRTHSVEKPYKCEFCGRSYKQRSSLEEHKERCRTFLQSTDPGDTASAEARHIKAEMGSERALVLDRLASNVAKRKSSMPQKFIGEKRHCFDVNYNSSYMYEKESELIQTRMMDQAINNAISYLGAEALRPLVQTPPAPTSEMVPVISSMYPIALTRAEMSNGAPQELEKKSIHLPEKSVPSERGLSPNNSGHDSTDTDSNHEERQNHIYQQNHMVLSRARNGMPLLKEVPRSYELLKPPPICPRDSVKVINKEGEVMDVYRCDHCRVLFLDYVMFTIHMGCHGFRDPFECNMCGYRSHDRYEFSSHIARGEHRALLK
T3 sequence (Q96SW2 whole entry): as the sequence (Q96SW2 whole entry) above
T3 sequence (Q16531 whole entry partner): as the sequence (Q16531 whole entry partner) above
T1 sequence (Q96SW2 whole entry): as the sequence (Q96SW2 whole entry) above
T4 sequence (P15170 whole entry): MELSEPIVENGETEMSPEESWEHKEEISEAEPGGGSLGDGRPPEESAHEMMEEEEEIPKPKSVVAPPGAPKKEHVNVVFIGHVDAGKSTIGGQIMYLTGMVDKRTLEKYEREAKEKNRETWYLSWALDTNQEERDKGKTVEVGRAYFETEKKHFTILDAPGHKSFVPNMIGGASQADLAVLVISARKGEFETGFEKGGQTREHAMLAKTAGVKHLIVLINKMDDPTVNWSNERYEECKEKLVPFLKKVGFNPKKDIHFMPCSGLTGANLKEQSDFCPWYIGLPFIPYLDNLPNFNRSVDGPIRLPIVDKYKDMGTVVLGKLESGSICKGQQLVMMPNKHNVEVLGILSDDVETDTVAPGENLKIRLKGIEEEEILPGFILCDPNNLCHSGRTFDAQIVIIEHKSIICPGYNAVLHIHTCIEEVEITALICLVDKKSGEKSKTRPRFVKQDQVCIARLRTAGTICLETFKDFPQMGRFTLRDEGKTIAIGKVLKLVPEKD
T4 sequence (Q96SW2 whole entry): as the sequence (Q96SW2 whole entry) above
T4 sequence (Q16531 whole entry partner): as the sequence (Q16531 whole entry partner) above

Regarding `O=C1CCC(N2Cc3cc(CN4CCN(c5ccnc(Cl)c5Br)CC4)ccc3C2=O)C(=O)N1` (stereo not drawn) [GT-04616, 3-(5-((4-(3-bromo-2-chloropyridin-4-yl)piperazin-1-yl)methyl)-1-oxoisoindolin-2-yl)piperidine-2,6-dione], the pIC50 in assay [1] is over 6.30. Moreover, at IKZF2, the “IKZF2 substrate protein remaining %” value is recorded as “B (80%< substrate protein remaining %≤ 100%)”. Moreover, the “IKZF3 substrate protein remaining %” value on IKZF3 is reported as “B (80%< substrate protein remaining %≤ 100%)”. Further, the “GSPT1 substrate protein remaining %” value at GSPT1 is given as “A (0% ≤ substrate protein remaining % ≤ 80%)”. For the same compound, the “Weel substrate protein remaining %” value on WEE1 is “B (80%< substrate protein remaining %≤ 100%)”. Further, the “CK1a substrate protein remaining %” value at CK1α is recorded as “B (80%< substrate protein remaining %≤ 100%)”. For the same compound, the “IKZF 1 substrate protein remaining %” value at IKZF1 is on record as “B (80%< substrate protein remaining %≤ 100%)”.
On to `O=C1CCC(N2Cc3cc(CN4CCC(c5ccnc6cc(F)ccc56)CC4)ccc3C2=O)C(=O)N1` (stereo not drawn) [GT-04648, 3-(5-((4-(7-fluoroquinolin-4-yl)piperidin-1-yl)methyl)-1-oxoisoindolin-2-yl)piperidine-2,6-dione], for which the pIC50 in assay [1] was 6.00 to 6.30. Also, the “IKZF2 substrate protein remaining %” value on IKZF2 is “A (0% ≤ substrate protein remaining % ≤ 80%)”. Further, the “IKZF3 substrate protein remaining %” value at IKZF3 is on record as “A (0% ≤ substrate protein remaining % ≤ 80%)”. The “GSPT1 substrate protein remaining %” value on GSPT1 was “A (0% ≤ substrate protein remaining % ≤ 80%)”. Moreover, on WEE1, the “Weel substrate protein remaining %” value is recorded as “B (80%< substrate protein remaining %≤ 100%)”. The “CK1a substrate protein remaining %” value at CK1α is on record as “B (80%< substrate protein remaining %≤ 100%)”. On IKZF1, the “IKZF 1 substrate protein remaining %” value is on record as “A (0% ≤ substrate protein remaining % ≤ 80%)”.
In the case of `O=C1CCC(N2Cc3cc(CN4CCC(=C5CCOc6cc(F)ccc65)CC4)ccc3C2=O)C(=O)N1` (stereo not drawn) [GT-04649, 3-(5-((4-(7-fluorochroman-4-ylidene)piperidin-1-yl)methyl)-1-oxoisoindolin-2-yl)piperidine-2,6-dione], the pIC50 in assay [1] is over 6.30. The “IKZF2 substrate protein remaining %” value on IKZF2 is on record as “A (0% ≤ substrate protein remaining % ≤ 80%)”. For the same compound, the “IKZF3 substrate protein remaining %” value on IKZF3 is listed as “A (0% ≤ substrate protein remaining % ≤ 80%)”. The “GSPT1 substrate protein remaining %” value on GSPT1 is “A (0% ≤ substrate protein remaining % ≤ 80%)”. The “Weel substrate protein remaining %” value at WEE1 is “B (80%< substrate protein remaining %≤ 100%)”. The “CK1a substrate protein remaining %” value on CK1α was “B (80%< substrate protein remaining %≤ 100%)”. Moreover, the “IKZF 1 substrate protein remaining %” value at IKZF1 is given as “A (0% ≤ substrate protein remaining % ≤ 80%)”.
On to `O=C1CCC(N2Cc3cc(CN4CCC(c5cccc6cnccc56)CC4)ccc3C2=O)C(=O)N1` (stereo not drawn) [GT-04665, 3-(5-((4-(isoquinolin-5-yl)piperidin-1-yl)methyl)-1-oxoisoindolin-2-yl)piperidine-2,6-dione], for which the pIC50 in assay [1] was over 6.30. The “IKZF2 substrate protein remaining %” value on IKZF2 is “A (0% ≤ substrate protein remaining % ≤ 80%)”. Also, the “IKZF3 substrate protein remaining %” value on IKZF3 is on record as “A (0% ≤ substrate protein remaining % ≤ 80%)”. The “GSPT1 substrate protein remaining %” value at GSPT1 is “A (0% ≤ substrate protein remaining % ≤ 80%)”. For the same compound, the “Weel substrate protein remaining %” value at WEE1 was “A (0% ≤ substrate protein remaining % ≤ 80%)”. Moreover, on CK1α, the “CK1a substrate protein remaining %” value is “A (0% ≤ substrate protein remaining % ≤ 80%)”. Besides, the “IKZF 1 substrate protein remaining %” value on IKZF1 is “A (0% ≤ substrate protein remaining % ≤ 80%)”.
On to `O=C1CCC(N2Cc3cc(CN4CCN(c5noc6cc(F)ccc56)CC4)ccc3C2=O)C(=O)N1` (stereo not drawn) [GT-04667, 3-(5-((4-(6-fluorobenzo[d]isoxazol-3-yl)piperazin-1-yl)methyl)-1-oxoisoindolin-2-yl)piperidine-2,6-dione], for which the pIC50 in assay [1] is 6.00 to 6.30. Also, the “IKZF2 substrate protein remaining %” value at IKZF2 is recorded as “A (0% ≤ substrate protein remaining % ≤ 80%)”. For the same compound, at IKZF3, the “IKZF3 substrate protein remaining %” value is listed as “A (0% ≤ substrate protein remaining % ≤ 80%)”. Moreover, the “GSPT1 substrate protein remaining %” value on GSPT1 is recorded as “A (0% ≤ substrate protein remaining % ≤ 80%)”. Moreover, the “Weel substrate protein remaining %” value on WEE1 is given as “A (0% ≤ substrate protein remaining % ≤ 80%)”. The “CK1a substrate protein remaining %” value at CK1α is listed as “B (80%< substrate protein remaining %≤ 100%)”. In addition, at IKZF1, the “IKZF 1 substrate protein remaining %” value is recorded as “A (0% ≤ substrate protein remaining % ≤ 80%)”.
On to `O=C1CCC(N2Cc3cc(CN4CC(N5CCc6cc(F)ccc65)C4)ccc3C2=O)C(=O)N1` (stereo not drawn) [GT-04677, 3-(5-((3-(5-fluoroindolin-1-yl)azetidin-1-yl)methyl)-1-oxoisoindolin-2-yl)piperidine-2,6-dione], for which, in assay [1], the pIC50 is over 6.30. For the same compound, at IKZF2, the “IKZF2 substrate protein remaining %” value is “A (0% ≤ substrate protein remaining % ≤ 80%)”. Also, the “IKZF3 substrate protein remaining %” value on IKZF3 is on record as “A (0% ≤ substrate protein remaining % ≤ 80%)”. The “GSPT1 substrate protein remaining %” value at GSPT1 is recorded as “A (0% ≤ substrate protein remaining % ≤ 80%)”. For the same compound, on WEE1, the “Weel substrate protein remaining %” value is recorded as “A (0% ≤ substrate protein remaining % ≤ 80%)”. The “CK1a substrate protein remaining %” value at CK1α is recorded as “B (80%< substrate protein remaining %≤ 100%)”. In addition, the “IKZF 1 substrate protein remaining %” value at IKZF1 is “A (0% ≤ substrate protein remaining % ≤ 80%)”.
Consider `O=C1CCC(N2Cc3cc(CN4CCN(c5ncnc6sccc56)CC4)ccc3C2=O)C(=O)N1` (stereo not drawn) [GT-04678, 3-(1-oxo-5-((4-(thieno[2,3-d]pyrimidin-4-yl)piperazin-1-yl)methyl)isoindolin-2-yl)piperidine-2,6-dione], for which the pIC50 in assay [1] was 6.00 to 6.30. Moreover, at IKZF2, the “IKZF2 substrate protein remaining %” value is on record as “A (0% ≤ substrate protein remaining % ≤ 80%)”. The “IKZF3 substrate protein remaining %” value at IKZF3 was “A (0% ≤ substrate protein remaining % ≤ 80%)”. Also, on GSPT1, the “GSPT1 substrate protein remaining %” value is reported as “A (0% ≤ substrate protein remaining % ≤ 80%)”. In addition, the “Weel substrate protein remaining %” value on WEE1 is given as “A (0% ≤ substrate protein remaining % ≤ 80%)”. The “CK1a substrate protein remaining %” value on CK1α was “B (80%< substrate protein remaining %≤ 100%)”. Besides, the “IKZF 1 substrate protein remaining %” value at IKZF1 is recorded as “A (0% ≤ substrate protein remaining % ≤ 80%)”.
For the compound `Cc1csc2ncnc(N3CCN(Cc4ccc5c(c4)CN(C4CCC(=O)NC4=O)C5=O)CC3)c12` (stereo not drawn) [GT-04679, 3-(5-((4-(5-methylthieno[2,3-d]pyrimidin-4-yl)piperazin-1-yl)methyl)-1-oxoisoindolin-2-yl)piperidine-2,6-dione], the pIC50 in assay [1] was 6.00 to 6.30. Further, at IKZF2, the “IKZF2 substrate protein remaining %” value is given as “B (80%< substrate protein remaining %≤ 100%)”. At IKZF3, the “IKZF3 substrate protein remaining %” value is on record as “B (80%< substrate protein remaining %≤ 100%)”. In addition, on GSPT1, the “GSPT1 substrate protein remaining %” value was “A (0% ≤ substrate protein remaining % ≤ 80%)”. The “Weel substrate protein remaining %” value at WEE1 was “B (80%< substrate protein remaining %≤ 100%)”. Besides, the “CK1a substrate protein remaining %” value at CK1α is given as “A (0% ≤ substrate protein remaining % ≤ 80%)”. Moreover, the “IKZF 1 substrate protein remaining %” value at IKZF1 is given as “B (80%< substrate protein remaining %≤ 100%)”.
With `Cc1cc2c(N3CCN(Cc4ccc5c(c4)CN(C4CCC(=O)NC4=O)C5=O)CC3)ncnc2s1` (stereo not drawn) [GT-04680, 3-(5-((4-(6-methylthieno[2,3-d]pyrimidin-4-yl)piperazin-1-yl)methyl)-1-oxoisoindolin-2-yl)piperidine-2,6-dione], the pIC50 in assay [1] was 6.00 to 6.30. For the same compound, the “IKZF2 substrate protein remaining %” value at IKZF2 is given as “B (80%< substrate protein remaining %≤ 100%)”. In addition, at IKZF3, the “IKZF3 substrate protein remaining %” value is on record as “B (80%< substrate protein remaining %≤ 100%)”. In addition, at GSPT1, the “GSPT1 substrate protein remaining %” value was “A (0% ≤ substrate protein remaining % ≤ 80%)”. Besides, the “Weel substrate protein remaining %” value on WEE1 is on record as “B (80%< substrate protein remaining %≤ 100%)”. Further, the “CK1a substrate protein remaining %” value at CK1α is “A (0% ≤ substrate protein remaining % ≤ 80%)”. Moreover, on IKZF1, the “IKZF 1 substrate protein remaining %” value is “B (80%< substrate protein remaining %≤ 100%)”.

The values above are taken from patent EP4745137A1 (Gluetacs Therapeutics (Shanghai) Co., Ltd., priority 2023, dated 2025).
